Experimental findings from US20140004243A1, “SALTY TASTE ENHANCER” (AJINOMOTO CO., INC., priority 2011, published 2014) are described below.

SMILES strings stand for the structures.

The test concerns the target T1, Human ENaC δ, β and γ subunit (Homo sapiens, UniProt P51168+P51170+P51172).
T1 construct: expressed in transfected cells; host or cells: Xenopus laevis (African clawed frog) oocytes injected with cRNA
T1 sequence (P51172 1-802): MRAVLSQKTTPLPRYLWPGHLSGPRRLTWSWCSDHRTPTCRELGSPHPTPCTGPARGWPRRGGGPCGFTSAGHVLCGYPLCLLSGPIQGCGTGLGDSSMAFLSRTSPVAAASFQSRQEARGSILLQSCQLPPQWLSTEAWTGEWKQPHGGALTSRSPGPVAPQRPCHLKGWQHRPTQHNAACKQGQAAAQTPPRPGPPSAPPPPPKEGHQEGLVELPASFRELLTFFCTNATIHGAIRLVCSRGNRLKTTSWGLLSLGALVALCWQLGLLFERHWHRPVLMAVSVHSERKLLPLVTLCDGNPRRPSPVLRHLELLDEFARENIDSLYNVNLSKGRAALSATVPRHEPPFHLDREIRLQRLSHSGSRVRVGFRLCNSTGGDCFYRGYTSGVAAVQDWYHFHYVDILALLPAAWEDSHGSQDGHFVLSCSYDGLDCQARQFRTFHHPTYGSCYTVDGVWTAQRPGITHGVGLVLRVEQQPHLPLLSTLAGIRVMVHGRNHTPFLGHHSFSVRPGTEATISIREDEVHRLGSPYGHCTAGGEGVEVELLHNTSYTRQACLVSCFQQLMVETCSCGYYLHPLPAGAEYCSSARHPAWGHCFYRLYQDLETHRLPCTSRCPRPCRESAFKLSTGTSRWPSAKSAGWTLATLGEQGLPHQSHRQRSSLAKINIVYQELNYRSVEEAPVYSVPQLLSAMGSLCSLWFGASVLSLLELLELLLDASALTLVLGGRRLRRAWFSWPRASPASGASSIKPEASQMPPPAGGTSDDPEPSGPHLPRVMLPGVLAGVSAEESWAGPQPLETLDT
T1 sequence (P51168 1-640): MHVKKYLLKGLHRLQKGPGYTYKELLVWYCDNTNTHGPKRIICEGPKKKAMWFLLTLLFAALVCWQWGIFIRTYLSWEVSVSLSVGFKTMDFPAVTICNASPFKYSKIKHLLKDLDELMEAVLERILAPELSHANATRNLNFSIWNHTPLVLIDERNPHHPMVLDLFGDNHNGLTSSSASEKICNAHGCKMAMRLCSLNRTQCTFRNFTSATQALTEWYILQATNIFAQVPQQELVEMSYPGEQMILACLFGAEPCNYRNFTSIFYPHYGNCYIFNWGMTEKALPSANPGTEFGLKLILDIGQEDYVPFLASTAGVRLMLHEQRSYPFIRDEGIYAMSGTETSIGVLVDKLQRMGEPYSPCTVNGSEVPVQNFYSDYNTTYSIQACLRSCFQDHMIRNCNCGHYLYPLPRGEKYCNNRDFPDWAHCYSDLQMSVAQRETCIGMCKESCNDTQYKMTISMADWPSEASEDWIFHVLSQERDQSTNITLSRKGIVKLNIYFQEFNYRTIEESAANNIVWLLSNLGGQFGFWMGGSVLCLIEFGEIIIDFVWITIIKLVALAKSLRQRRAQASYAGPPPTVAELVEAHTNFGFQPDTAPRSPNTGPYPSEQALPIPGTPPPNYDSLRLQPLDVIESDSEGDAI
T1 sequence (P51170 1-649): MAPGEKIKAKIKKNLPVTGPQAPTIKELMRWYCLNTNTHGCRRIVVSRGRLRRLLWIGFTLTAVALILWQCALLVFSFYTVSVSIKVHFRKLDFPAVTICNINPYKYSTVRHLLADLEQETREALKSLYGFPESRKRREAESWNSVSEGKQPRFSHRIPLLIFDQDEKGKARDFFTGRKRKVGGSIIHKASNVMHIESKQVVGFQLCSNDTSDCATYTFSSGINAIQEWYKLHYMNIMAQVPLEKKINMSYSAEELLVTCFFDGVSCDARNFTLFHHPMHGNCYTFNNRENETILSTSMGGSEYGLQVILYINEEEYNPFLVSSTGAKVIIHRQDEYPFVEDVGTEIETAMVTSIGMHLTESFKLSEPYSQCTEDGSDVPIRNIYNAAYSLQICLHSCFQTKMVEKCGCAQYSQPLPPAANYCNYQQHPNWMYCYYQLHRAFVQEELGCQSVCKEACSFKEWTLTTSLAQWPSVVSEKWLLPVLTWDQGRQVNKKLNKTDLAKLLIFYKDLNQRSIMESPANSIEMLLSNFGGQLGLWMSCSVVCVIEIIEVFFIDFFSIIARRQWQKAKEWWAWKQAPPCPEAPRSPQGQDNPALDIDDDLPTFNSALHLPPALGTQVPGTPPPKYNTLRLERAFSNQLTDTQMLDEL
Nature of the test: Measurement of ENaC activation potency (MED) in ENaC-expressing oocyte, Two Electrode Voltage Clamp. In kind it is cell-based. Particulars: minimum effective dose at which current started to increase; ENaC-expressing African clawed frog oocyte; smaller MED = higher ENaC activation potency. The method, then:
ENaC activation current value, namely, the inward current in ENaC-expressing oocyte was measured as follows.
According to the method described in Motonao Nakamura, Takao Shimizu: Experiment of African clawed frog oocyte, Experimental Medicine Vol. 11, No. 3, 224-232 (1993), oocyte was collected from African clawed frog, […], and the current value was measured by a Two Electrode Voltage Clamp technique. In the present invention, ND96 (96 mM NaCl, 2 mM KCl, 1 mM MgCl2, 5 mM Hepes, 1.8 mM CaCl2, pH 7.6) was used instead of MBS buffer in the above-mentioned document. Injector NANOLITER 2000 manufactured by World Precision Instruments was used for microinjection, OpusXpress 6000A manufactured by Molecular Devices was used for current value measurement by a Two Electrode Voltage Clamp technique, and Clampfit 10.2 software manufactured by Molecular Devices was used for data analysis.
Human ENaC δ, β and γ subunit genes shown by SEQ ID NOs: 1, 2 and 3, respectively, in the Sequence Listing were each cloned into a plasmid vector, and used as a template DNA for cRNA synthesis. cRNA was synthesized using MEGAscript kit manufactured by Ambion and according to the method of the manual of the manufacturer.
A mixture of the same amount of ENaC […] cRNA (0.4 to 0.8 μg/μL), and β and γ subunits cRNA (0.4 μg/μL) was injected into the oocyte of African clawed frog at […] per oocyte, and the oocyte was cultured for 16 hr-72 hr. Thereafter, the oocyte was set on a measuring apparatus OpusXpress 6000A, the electrodes were inserted into the oocyte, the voltage was clamped at a level lower by −30 mV than the resting membrane potential by a Two Electrode Voltage Clamp technique, and the current value was measured.
To measure the ENaC activation potency, oocyte was stimulated with each test compound, and the minimum effective dose (hereinafter to be abbreviated as MED) of the compound at the time point when the electric current started to increase was measured. In this case, whichever smaller value of the minimum effective dose of the stimulation compound that increased the current value by not less than 10%, and the minimum effective concentration of the compound that increased, by not less than 25%, the electric current increase value due to the stimulation by 5 μM capsazepine (CAS NO.: 138977-28-3), as compared to the current value before addition of the compound and without stimulation, was taken as MED. A smaller MED means higher ENaC activation potency.
Each test compound was directly dissolved in ND96, or first dissolved in dimethyl sulfoxide (DMSO) to 100 mM, and then prepared by diluting the solution with ND96 to a concentration used for the evaluation. The concentration of the test compound in ND96 was prepared to various concentrations within the range of 0.1 nM to 300 μm.
ND96 as a perfusion fluid was flown at a rate of 0.5 mL/min through the measuring apparatus OpusXpress 6000A on which ENaC-expressing oocyte was set, the perfusion fluid was temporarily stopped every 3 minutes to add a test compound solution (0.25 mL) dissolved in ND96 at a rate of 0.5 mL/min. In this way, the test compound was contacted with ENaC-expressing oocyte, and whether ENaC is activated by the compound was examined by measuring the current value. After addition of the test compound, feeding of the perfusion fluid was resumed to wash away the compound to be ready for the next addition of the compound.
The compound was added successively from a low concentration to a high concentration to stimulate ENaC-expressing oocyte. The concentrations actually added was, for example, 1 nM, 3 nM, 10 nM, 30 nM, 100 nM, 300 nM; 1 μM, 3 μM, 10 μm, 30 μm, 100 μm, 300 μm; 1.2 μM, 6 μM, 30 μm, 150 μm of one test compound. The compound was added from low concentrations to high concentrations at 3 min intervals. […]
On the technique in general: In two-electrode clamp one electrode senses voltage and the other passes current.
Take `CC(C)(C)OC(=O)Nc1cccc(CNC(=S)NCCc2ccccc2)c1` [Example 78, tert-butyl 3-{[3-(2-phenylethyl)thioureido]methyl}phenylcarbamate]: the MED was found to be 10 µM. Molecule `COc1ccccc1CCNC(=S)NCc1ccccc1` [Example 29] had an MED of 3.3 µM. Regarding `C[C@@H](NC(=S)N/N=C/c1ccccc1O)c1ccccc1` [Example 35], the MED worked out at 3 µM. `S=C(NCCc1ccc(Cl)cc1)NCCc1c[nH]c2ccccc12` [Example 6] showed an MED of 30 µM. `S=C(NCCCc1ccccc1)NCc1ccccc1` [Example 18]: the MED was 10 µM. Then `Oc1cccc(CCNC(=S)NCc2ccccc2)c1` [Example 63], with 3.3 µM; and `CC(C)CN(Cc1ccc(O)c(O)c1)C(=S)NCCc1ccccc1` [Example 48], with 1 µM; and `C[C@@H](NC(=S)NCC(O)c1cc(Br)ccc1O)c1cccc(O)c1` (some centres unmarked) [Example 116], with 0.1 µM. With `C[C@@H](NC(=S)NNCc1c(O)cccc1O)c1ccccc1` [Example 95], the MED fell in the range of 3 to 10 µM. `S=C(NCCc1ccccc1)N(Cc1ccccc1)Cc1ccccc1` [Example 22] had an MED of 30 µM.

`Nc1cccc(CNC(=S)NCCc2ccccc2)c1` [Example 79, 1-(3-aminobenzyl)-3-(2-phenylethyl)thiourea]: the MED turned out to be 1 µM. `Oc1ccccc1CCNC(=S)NCc1ccccc1` [Example 62] returned an MED of 1.1 µM. Turning to `S=C(NCCc1c[nH]c2ccccc12)Nc1ccccc1` [Example 34], the MED stood at 10 µM. Then `C[C@@H](NC(=S)N[C@@H](Cc1ccccc1)C(=O)O)c1cccc(O)c1` [Example 108], with 0.3 µM. `FC(F)(F)c1ccc(CNC(=S)NCCc2ccccc2)cc1` [Example 30] had an MED of 30 µM. `COC[C@@H](NC(=S)NCCc1ccccc1)c1ccccc1` [Example 75] registered an MED of 1 µM. `O=C(O)[C@@H](NC(=S)NCCc1ccccc1O)c1ccccc1` [Example 102, (S)-2-{3-[2-(2-hydroxyphenyl)ethyl]thioureido}-2-phenylacetic acid] had an MED of 1 µM.

As to `O[C@H](CNC(=S)NCc1ccccc1)c1ccccc1` [Example 72], the MED came out at 1 µM. The value for `COc1cc2c(cc1OC)CN(C(=S)NCCc1ccc(Cl)cc1)CC2` [Example 3] was 30 µM; that for `C[C@@H](NC(=S)NNCc1ccccc1O)c1ccccc1` [Example 90] was 1 µM; that for `Oc1cc2c(cc1O)CN(C(=S)NCCc1ccccc1)CC2` [Example 41, N-(2-phenylethyl)-3,4-dihydro-6,7-dihydroxyisoquinoline-2(1H)-carbothioamide] was 3 µM. `COc1cccc(OC)c1/C=N/NC(=S)N[C@H](C)c1ccccc1` [Example 92, (E)-1-(2,6-dimethoxybenzylidene)-4-((R)-1-phenylethyl)thiosemicarbazide]: the MED stood at 30 µM. In turn, `COC(=O)c1ccccc1NC(=S)N(C)CCc1ccccc1` [Example 37] registered an MED of 3 µM.

On to `C[C@@H](NC(=S)NC(Cc1ccccc1O)C(=O)O)c1cccc(O)c1` (stereo partly drawn) [Example 106, 2-{3-[(R)-1-(3-hydroxyphenyl)ethyl]thioureido}-3-(2-hydroxyphenyl)propanoic acid], for which the MED was 0.1 to 0.3 µM.

For the molecule `S=C(NCc1ccccc1)NCC(c1ccccc1)c1ccccc1` [Example 59], the MED came out at 10 µM. Molecule `O=C(O)c1ccccc1NC(=S)Nc1ccccc1` [Example 39] returned an MED of 1 µM. With `C[C@@H](NC(=S)N[C@@H](Cc1ccc(O)cc1)C(=O)O)c1cccc(O)c1` [Example 110], the MED stood at 0.3 µM. `C[C@@H](NC(=S)N/N=C/c1c(O)cccc1O)c1ccccc1` [Example 94]: the MED was in the range of 3 to 10 µM.

As for `S=C(NCCc1ccccc1Br)NCc1ccccc1` [Example 74], the MED is 3 to 10 µM. `Oc1ccc(CNC(=S)NCc2ccccc2)cc1O` [Example 45] displayed an MED of 3 µM.

For `O=C(O)[C@@H](NC(=S)NCCc1ccccc1)c1ccccc1` [Example 101], the MED was 1 µM. With `S=C(NCCc1ccccn1)NCc1ccccc1` [Example 14], the MED came to 3 µM.
